Reference: PMC6825211 (Nature Communications, 2019)
Several values for one entry are separate records, joined by “and”; a condition that tells them apart may be missing. Equal values may be shown once. Entries after “also recorded” stand apart in the source; their conditions may differ.

What was measured:
MST1–LATS2 signaling [1] = test: LATS-BS in vitro luciferase assay (MST1/LATS2 overexpression); conditions: for Firefly/Renilla x1000 (MEAN): L2/Mst1 overexpression + 10 μM compound
From the text: Therefore a LATS-BS construct has been generated with fusion of YAP fragment and 14-3-3 with N-terminal and C-terminal firefly luciferase fragments (N-luc and C-luc), respectively that assesses LATS kinase activity by measuring the interaction between pS127-YAP and 14-3-3[35] in a MST1–LATS2-phosphorylation-dependent manner (Fig. 4a).
As internal transfection control, pRL-Renilla luciferase control reporter vector (Promega) was co-transfected into each sample. […] Luciferase signal was calculated based on the ratio of luciferase activity of LATS-BS to control reporter vector.

human islets [2] = test: β-cell apoptosis (TUNEL/insulin) after Ad-MST1 overexpression; conditions: for mean TUNEL/isolation/%: MST1 OE + NERA 10 μM 48 h
Method: Isolated human islets or INS-1E cells were infected with adenovirus carrying LacZ as control or MST1 or LATS2 (all Vector Biolabs), at a multiplicity of infection of 100 (human islets) or 20 (INS-1E) for 4 h[11].

AMP-A1B1G1 = AMP-A1B1G1 (Homo sapiens, UniProt Q13131); test: Nanosyn kinase profiling, mobility shift assay; conditions: read-out: % inhibition by neratinib
AMP-A1B1G1, sequence (Q13131 whole entry): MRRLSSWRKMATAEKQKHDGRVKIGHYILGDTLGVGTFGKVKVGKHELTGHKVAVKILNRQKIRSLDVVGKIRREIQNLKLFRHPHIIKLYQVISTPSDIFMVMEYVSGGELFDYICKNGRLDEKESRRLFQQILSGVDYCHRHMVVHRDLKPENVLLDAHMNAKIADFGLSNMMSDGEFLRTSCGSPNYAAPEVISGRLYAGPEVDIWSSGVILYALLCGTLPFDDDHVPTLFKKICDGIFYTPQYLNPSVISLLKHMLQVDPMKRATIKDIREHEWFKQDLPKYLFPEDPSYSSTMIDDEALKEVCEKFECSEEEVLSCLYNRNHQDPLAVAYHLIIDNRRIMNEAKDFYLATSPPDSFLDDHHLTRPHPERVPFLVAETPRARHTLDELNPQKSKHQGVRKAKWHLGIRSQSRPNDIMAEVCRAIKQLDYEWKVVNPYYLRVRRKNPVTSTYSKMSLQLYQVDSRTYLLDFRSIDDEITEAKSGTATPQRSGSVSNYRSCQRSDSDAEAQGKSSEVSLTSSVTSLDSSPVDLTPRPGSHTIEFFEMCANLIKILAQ
AMP-A1B1G1, sequence (Q9Y478 whole entry partner): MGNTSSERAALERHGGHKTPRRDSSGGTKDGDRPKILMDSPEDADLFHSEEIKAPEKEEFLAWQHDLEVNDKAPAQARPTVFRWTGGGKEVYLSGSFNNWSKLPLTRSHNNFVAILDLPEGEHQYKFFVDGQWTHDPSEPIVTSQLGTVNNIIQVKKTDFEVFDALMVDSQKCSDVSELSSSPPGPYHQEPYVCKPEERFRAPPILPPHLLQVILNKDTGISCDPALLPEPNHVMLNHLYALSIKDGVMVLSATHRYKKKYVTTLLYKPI
AMP-A1B1G1, sequence (P54619 whole entry partner): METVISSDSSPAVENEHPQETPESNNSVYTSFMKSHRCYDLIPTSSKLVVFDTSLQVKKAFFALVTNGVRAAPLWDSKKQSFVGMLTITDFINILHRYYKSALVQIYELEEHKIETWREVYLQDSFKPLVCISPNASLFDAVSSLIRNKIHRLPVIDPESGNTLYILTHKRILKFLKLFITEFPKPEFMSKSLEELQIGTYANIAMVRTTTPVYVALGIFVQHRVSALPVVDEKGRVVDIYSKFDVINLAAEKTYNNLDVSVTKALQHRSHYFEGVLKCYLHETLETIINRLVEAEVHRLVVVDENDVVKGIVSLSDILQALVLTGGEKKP

MST1–LATS2 signaling [3] = test: Western blot of YAP-S127 phosphorylation (MST1/LATS2 overexpression); conditions: 10 μM, last 24 h
FLT-3 = FLT-3 (Homo sapiens, UniProt P36888); test: Nanosyn kinase profiling, mobility shift assay; conditions: read-out: % inhibition by neratinib
FLT-3, sequence (P36888 27-993): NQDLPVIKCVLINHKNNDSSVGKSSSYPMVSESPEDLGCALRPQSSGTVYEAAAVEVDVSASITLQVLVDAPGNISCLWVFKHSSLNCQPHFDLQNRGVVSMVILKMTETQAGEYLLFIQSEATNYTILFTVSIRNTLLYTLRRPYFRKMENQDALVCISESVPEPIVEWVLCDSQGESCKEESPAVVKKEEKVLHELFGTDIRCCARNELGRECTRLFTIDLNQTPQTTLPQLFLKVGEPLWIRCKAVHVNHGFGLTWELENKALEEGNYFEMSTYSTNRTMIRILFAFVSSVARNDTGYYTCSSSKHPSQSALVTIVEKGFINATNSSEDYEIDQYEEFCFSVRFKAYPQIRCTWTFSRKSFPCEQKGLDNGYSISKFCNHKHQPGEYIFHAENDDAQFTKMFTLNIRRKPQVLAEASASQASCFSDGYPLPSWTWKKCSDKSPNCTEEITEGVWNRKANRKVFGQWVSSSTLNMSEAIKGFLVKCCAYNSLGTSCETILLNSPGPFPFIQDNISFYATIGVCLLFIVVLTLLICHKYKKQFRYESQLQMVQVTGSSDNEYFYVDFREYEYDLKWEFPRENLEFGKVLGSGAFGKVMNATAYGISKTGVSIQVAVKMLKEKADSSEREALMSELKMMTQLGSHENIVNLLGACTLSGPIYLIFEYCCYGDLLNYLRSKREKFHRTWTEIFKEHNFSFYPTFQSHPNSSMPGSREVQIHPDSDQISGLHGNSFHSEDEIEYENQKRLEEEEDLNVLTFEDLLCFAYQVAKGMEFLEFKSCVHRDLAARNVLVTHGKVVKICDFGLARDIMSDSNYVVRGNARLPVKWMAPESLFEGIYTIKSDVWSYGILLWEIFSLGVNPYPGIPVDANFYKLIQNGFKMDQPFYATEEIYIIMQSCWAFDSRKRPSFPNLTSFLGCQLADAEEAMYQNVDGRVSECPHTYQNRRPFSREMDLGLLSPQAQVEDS

TYK2 = TYK2 (Homo sapiens, UniProt P29597); test: Nanosyn kinase profiling, mobility shift assay; conditions: read-out: % inhibition by neratinib
JAK1 = JAK1 (Homo sapiens, UniProt P23458); test: Nanosyn kinase profiling, mobility shift assay; conditions: read-out: % inhibition by neratinib
PRKACA = PRKACA (Homo sapiens, UniProt P17612); test: Nanosyn kinase profiling, mobility shift assay; conditions: read-out: % inhibition by neratinib
IKK-BETA = IKK-BETA (Homo sapiens, UniProt O14920); test: Nanosyn kinase profiling, mobility shift assay; conditions: read-out: % inhibition by neratinib
IKK-BETA, sequence (O14920 whole entry): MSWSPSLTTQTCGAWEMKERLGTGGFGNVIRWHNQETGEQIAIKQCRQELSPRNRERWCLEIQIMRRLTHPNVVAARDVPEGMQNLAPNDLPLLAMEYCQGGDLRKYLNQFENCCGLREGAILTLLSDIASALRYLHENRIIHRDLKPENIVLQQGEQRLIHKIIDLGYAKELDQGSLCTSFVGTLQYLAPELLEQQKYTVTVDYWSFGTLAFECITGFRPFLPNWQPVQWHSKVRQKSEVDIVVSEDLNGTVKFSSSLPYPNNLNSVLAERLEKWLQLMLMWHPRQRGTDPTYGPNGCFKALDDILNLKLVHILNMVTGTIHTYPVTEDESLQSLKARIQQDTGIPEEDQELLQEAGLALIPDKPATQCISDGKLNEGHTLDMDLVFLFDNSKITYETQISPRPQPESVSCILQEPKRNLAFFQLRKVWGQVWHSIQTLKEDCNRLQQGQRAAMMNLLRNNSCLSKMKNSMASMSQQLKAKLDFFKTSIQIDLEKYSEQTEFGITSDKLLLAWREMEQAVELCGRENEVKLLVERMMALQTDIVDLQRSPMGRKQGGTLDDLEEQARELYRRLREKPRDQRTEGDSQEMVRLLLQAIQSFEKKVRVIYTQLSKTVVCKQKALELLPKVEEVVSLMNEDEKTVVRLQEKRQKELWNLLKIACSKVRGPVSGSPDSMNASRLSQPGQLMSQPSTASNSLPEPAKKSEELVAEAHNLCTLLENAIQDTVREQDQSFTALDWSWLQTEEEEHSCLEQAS

MLD–STZ C57BL/6J mice [4] = test: MLD–STZ model: β-cell proliferation (Ki67); type: in vivo, mouse
IGF1R = IGF1R (Homo sapiens, UniProt P08069); test: Nanosyn kinase profiling, mobility shift assay; conditions: read-out: % inhibition by neratinib
SRC = SRC (Homo sapiens, UniProt P12931); test: Nanosyn kinase profiling, mobility shift assay; conditions: read-out: % inhibition by neratinib
SRC, sequence (P12931 whole entry, species assumed): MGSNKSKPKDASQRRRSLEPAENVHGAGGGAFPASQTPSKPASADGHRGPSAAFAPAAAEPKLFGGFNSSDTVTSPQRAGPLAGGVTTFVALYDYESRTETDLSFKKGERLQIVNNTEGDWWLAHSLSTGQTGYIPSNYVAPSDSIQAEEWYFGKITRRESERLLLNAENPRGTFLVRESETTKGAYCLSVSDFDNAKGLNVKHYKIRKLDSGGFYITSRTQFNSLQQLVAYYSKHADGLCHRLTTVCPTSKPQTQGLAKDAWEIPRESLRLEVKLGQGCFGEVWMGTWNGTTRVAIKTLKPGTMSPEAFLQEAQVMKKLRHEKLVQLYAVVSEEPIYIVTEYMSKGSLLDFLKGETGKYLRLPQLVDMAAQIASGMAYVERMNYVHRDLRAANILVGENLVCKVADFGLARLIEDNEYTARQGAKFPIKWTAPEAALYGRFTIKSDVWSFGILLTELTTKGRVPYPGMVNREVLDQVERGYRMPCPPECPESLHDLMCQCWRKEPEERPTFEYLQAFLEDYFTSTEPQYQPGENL

CDK1 = CDK1 (Homo sapiens, UniProt P06493); test: Nanosyn kinase profiling, mobility shift assay; conditions: read-out: % inhibition by neratinib
CDK1, sequence (P06493 whole entry): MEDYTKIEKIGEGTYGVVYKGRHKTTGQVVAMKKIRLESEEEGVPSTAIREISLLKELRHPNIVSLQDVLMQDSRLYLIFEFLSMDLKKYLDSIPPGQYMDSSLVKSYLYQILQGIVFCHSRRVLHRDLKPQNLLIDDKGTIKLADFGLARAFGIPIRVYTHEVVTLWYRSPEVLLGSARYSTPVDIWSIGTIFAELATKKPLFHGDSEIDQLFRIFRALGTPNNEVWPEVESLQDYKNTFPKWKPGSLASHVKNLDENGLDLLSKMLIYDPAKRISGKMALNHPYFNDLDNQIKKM
CDK1, sequence (P14635 whole entry partner): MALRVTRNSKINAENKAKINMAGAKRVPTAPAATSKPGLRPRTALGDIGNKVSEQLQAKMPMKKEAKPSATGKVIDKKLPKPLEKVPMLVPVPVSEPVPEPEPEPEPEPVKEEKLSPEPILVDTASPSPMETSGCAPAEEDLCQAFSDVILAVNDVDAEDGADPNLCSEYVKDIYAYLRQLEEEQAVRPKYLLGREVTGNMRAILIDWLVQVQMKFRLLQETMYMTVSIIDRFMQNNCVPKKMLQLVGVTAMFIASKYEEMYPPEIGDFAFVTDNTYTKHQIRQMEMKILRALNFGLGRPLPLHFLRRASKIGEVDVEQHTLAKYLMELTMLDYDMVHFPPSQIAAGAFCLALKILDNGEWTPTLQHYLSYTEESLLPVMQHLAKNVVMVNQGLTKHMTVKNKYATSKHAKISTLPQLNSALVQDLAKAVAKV

SGK1 = SGK1 (Homo sapiens, UniProt O00141); test: Nanosyn kinase profiling, mobility shift assay; conditions: read-out: % inhibition by neratinib
[5] = MALDI imaging mass spectrometry of pancreas sections; type: in vivo, mouse
Method: MALDI imaging mass spectrometry (MALDI imaging MS) was performed on pancreas, liver, colon, stomach, kidney, heart, and brain tissue sections from WT C57BL/6J and db/db mice in triplicates. […] For MALDI imaging MS, 10-µm cryo sections were cut with a cryo-microtome (CM1860, Leica Biosystems, Nussloch, Germany) and mounted on indium–tin-coated conductive glass slides (Bruker Daltonics, Bremen, Germany). The matrix (HCCA in 50% ACN, 0.5% TFA) was applied with the ImagePrep Device (Bruker Daltonics), and MALDI spectra were recorded by using a Bruker autofleX speed mass spectrometer in positive reflector mode with a mass range of 400–1400 m/z. A large-size laser diameter was used with a lateral resolution of 100 µm, and 500 laser shots per pixel were accumulated with the random walk option set to 100 shots per position. […] Standards were spotted on mice liver cryo-sections and the spectral intensity was plotted.

MLD–STZ C57BL/6J mice [6] = test: MLD–STZ model: random fed blood glucose; type: in vivo, mouse; set-up: AUC glycemia: unit not given here
Method: C57Bl/6J mice were injected with 40 mg/kg streptozotocin or citrate buffer for 5 consecutive days. […] In d, basal glucose values were normalized to 100%. e Insulin secretion measured from retro-orbital blood draw during an ipGTT measured before (0 min) and 15 min after glucose injection; data are expressed as the ratio of secreted insulin at 15 min/0 min (stimulatory index). f The ratio of secreted insulin and glucose is calculated at fed state. g–i Mice were killed at day 35. g β-cell mass (given as percentage of the whole pancreatic section from ten sections spanning the width of the pancreas) and quantitative analyses from triple staining for h TUNEL or i Ki67, insulin, and DAPI expressed as percentage of TUNEL- or Ki67-positive β-cells ±SEM. An average number of 2331 (h), or 26369 (i) β-cells were counted. n = 9 mice/group for (a); n = 4–12 for (b); n = 5–15 for (c) and (d); n = 12–19 for (e); n = 8–14 for (f); n = 4–9 for (g); n = 4–11 for (h); and n = 6–11 mice/groupfor (i); all from three independent experiments).

CK1-EPSILON = CK1-EPSILON (Homo sapiens, UniProt P49674); test: Nanosyn kinase profiling, mobility shift assay; conditions: read-out: % inhibition by neratinib
CK1-EPSILON, sequence (P49674 whole entry): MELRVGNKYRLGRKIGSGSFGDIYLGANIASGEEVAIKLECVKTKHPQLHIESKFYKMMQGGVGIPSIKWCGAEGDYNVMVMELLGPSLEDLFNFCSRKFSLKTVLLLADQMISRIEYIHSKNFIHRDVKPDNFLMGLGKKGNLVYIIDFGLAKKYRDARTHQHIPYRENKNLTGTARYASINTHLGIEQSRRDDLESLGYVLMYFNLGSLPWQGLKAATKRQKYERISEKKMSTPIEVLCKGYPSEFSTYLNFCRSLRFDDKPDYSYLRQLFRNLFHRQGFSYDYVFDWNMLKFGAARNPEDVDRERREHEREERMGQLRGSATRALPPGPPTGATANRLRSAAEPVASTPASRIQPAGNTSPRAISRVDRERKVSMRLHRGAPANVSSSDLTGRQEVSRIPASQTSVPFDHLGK

[7] = system: isolated islets from WT mice; test: β-cell apoptosis (TUNEL/insulin) under diabetogenic conditions, WT islets
MAPKAPK-2 = MAPKAPK-2 (Homo sapiens, UniProt P49137); test: Nanosyn kinase profiling, mobility shift assay; conditions: read-out: % inhibition by neratinib
MAPKAPK-2, sequence (P49137 whole entry): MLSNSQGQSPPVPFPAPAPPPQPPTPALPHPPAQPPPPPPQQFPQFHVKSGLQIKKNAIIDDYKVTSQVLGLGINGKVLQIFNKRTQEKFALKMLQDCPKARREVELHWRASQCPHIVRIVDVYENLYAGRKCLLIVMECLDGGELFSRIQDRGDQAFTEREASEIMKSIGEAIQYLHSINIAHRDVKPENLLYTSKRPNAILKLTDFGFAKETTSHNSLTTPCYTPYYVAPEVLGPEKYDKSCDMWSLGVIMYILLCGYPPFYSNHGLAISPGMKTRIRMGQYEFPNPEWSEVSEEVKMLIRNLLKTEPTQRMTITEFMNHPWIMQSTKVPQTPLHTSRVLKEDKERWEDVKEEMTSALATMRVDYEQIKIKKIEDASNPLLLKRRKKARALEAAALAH

human islets [8] = test: Western blot of pMST1 and caspase-3 cleavage under diabetogenic conditions; conditions: 72 h, six donors
MLD–STZ C57BL/6J mice [9] = test: MLD–STZ model: ratio of secreted insulin and glucose at fed state; type: in vivo, mouse

With CCOc1cc2ncc(C#N)c(Nc3ccc(OCc4ccccn4)c(Cl)c3)c2cc1NC(=O)/C=C/CN(C)C [neratinib] the “MST1/LATS2-induced luciferase activity (LATS-BS)” value (MST1–LATS2 signaling [1]; 10 μM, last 24 h) was “strongly inhibited”, the “Firefly/Renilla x1000 (MEAN)” value (MST1–LATS2 signaling [1]; mean of six dishes) was 10.9109 and the “Firefly/Renilla x1000 (MEAN)” value (MST1–LATS2 signaling [1]; single culture dishes) was 12.1618. For the same compound, the “β-cell apoptosis induced by MST1 overexpression” value (human islets [2]; 10 μM, 48 h) was “significantly blocked; also recorded: almost fully blocked”, the “mean TUNEL/isolation/%” value (human islets [2]; mean, LacZ = 100) was 126.263% and the “mean TUNEL/isolation/%” value (human islets [2]; single isolations, LacZ mean = 100) was 100% and 145.455% and 133.333%. For the same compound, the inhibition at 10 µM (AMP-A1B1G1) was 11%, the “MST1/LATS2-induced YAP-S127 phosphorylation” value (MST1–LATS2 signaling [3]) was “strongly inhibited” and the inhibition at 10 µM (FLT-3) was 47%. It also gave an inhibition at 10 µM (TYK2) of 15%, an inhibition at 10 µM (JAK1) of 5% and an inhibition at 10 µM (PRKACA) of 3%. For the same compound, the inhibition at 10 µM (IKK-BETA) was -7%, the Ki67%/ mouse (MLD–STZ C57BL/6J mice [4]; NeraCtr group (no STZ), MEAN) was 0.3774% and the Ki67%/ mouse (MLD–STZ C57BL/6J mice [4]; NeraCtr group (no STZ), individual mice) was 0% and 2% and 1.019%. For the same compound, the Ki67%/ mouse (MLD–STZ C57BL/6J mice [4]; NeraSTZ group, MEAN) was 3.98%, the Ki67%/ mouse (MLD–STZ C57BL/6J mice [4]; NeraSTZ group, individual mice) was 0% and 6.981% and 5.492% and 7.984% and 3.425% and the inhibition at 10 µM (IGF1R) was 37%. It also gave an inhibition at 10 µM (SRC) of 73%, an inhibition at 10 µM (CDK1) of 14% and an inhibition at 10 µM (SGK1) of 28%. For the same compound, the “neratinib in pancreatic tissue” value ([5]; WT mice, 4 h after i.p. injection) was “clearly detected”, the “neratinib signal in pancreas tissue sections” value ([5]; db/db mice, 4-week daily i.p. injection) was “specific signal was obtained” and the “glycemia in nondiabetic control mice” value (MLD–STZ C57BL/6J mice [6]; 5 mg/kg i.p. daily) was “no effect on glycemia”. For the same compound, the “glucose levels in STZ mice” value (MLD–STZ C57BL/6J mice [6]; 5 mg/kg i.p. daily, 35 days) was “lower glucose levels during the entire 35 days”, the glycemia (MLD–STZ C57BL/6J mice [6]; NeraCtr (no STZ, neratinib 5 mg/kg i.p. daily), day 0, individual mice) was 136 mg/dL and 120 mg/dL and 165 mg/dL and 122 mg/dL and 87 mg/dL and 80 mg/dL and 78 mg/dL and 130 mg/dL and the AUC glycemia (MLD–STZ C57BL/6J mice [6]; NeraCtr, Mean) was 4215.5. For the same compound, the glycemia (MLD–STZ C57BL/6J mice [6]; NeraCtr, day 3, individual mice) was 139 mg/dL and 103 mg/dL and 119 mg/dL and 117 mg/dL and 104 mg/dL and 116 mg/dL and 114 mg/dL and 149 mg/dL and 112 mg/dL, the glycemia (MLD–STZ C57BL/6J mice [6]; NeraCtr, day 7, individual mice) was 100 mg/dL and 134 mg/dL and 130 mg/dL and 92 mg/dL and 120 mg/dL and 106 mg/dL and 114 mg/dL and 125 mg/dL and 111 mg/dL and the glycemia (MLD–STZ C57BL/6J mice [6]; NeraCtr, day 9, individual mice) was 108 mg/dL and 93 mg/dL and 122 mg/dL and 89 mg/dL and 96 mg/dL and 109 mg/dL and 111 mg/dL and 90 mg/dL. The glycemia (MLD–STZ C57BL/6J mice [6]; NeraCtr, day 12, individual mice) was 138 mg/dL and 112 mg/dL and 125 mg/dL and 100 mg/dL and 117 mg/dL and 105 mg/dL and 86 mg/dL and 133 mg/dL, the glycemia (MLD–STZ C57BL/6J mice [6]; NeraCtr, day 16, individual mice) was 104 mg/dL and 92 mg/dL and 112 mg/dL and 106 mg/dL and 96 mg/dL and 88 mg/dL and 118 mg/dL and 93 mg/dL and the glycemia (MLD–STZ C57BL/6J mice [6]; NeraCtr, day 22, individual mice) was 115 mg/dL and 102 mg/dL and 145 mg/dL and 144 mg/dL and 132 mg/dL and 113 mg/dL and 110 mg/dL and 103 mg/dL and 146 mg/dL. The glycemia (MLD–STZ C57BL/6J mice [6]; NeraCtr, day 28, individual mice) was 109 mg/dL and 137 mg/dL and 141 mg/dL and 103 mg/dL and 110 mg/dL and 127 mg/dL and 112 mg/dL and 156 mg/dL and 106 mg/dL, the glycemia (MLD–STZ C57BL/6J mice [6]; NeraCtr, day 36, individual mice) was 156 mg/dL and 132 mg/dL and 145 mg/dL and 146 mg/dL and 111 mg/dL and 114 mg/dL and 120 mg/dL and 109 mg/dL and the AUC glycemia (MLD–STZ C57BL/6J mice [6]; NeraCtr, individual mice) was 4340.5 and 4217 and 4748 and 4310 and 3997 and 3944.5 and 3991 and 4247 and 4144.5. The glycemia (MLD–STZ C57BL/6J mice [6]; NeraSTZ (STZ + neratinib 5 mg/kg i.p. daily), day 0, individual mice) was 112 mg/dL and 125 mg/dL and 148 mg/dL, the AUC glycemia (MLD–STZ C57BL/6J mice [6]; NeraSTZ, Mean) was 7519.28 and the glycemia (MLD–STZ C57BL/6J mice [6]; NeraSTZ, day 3, individual mice) was 94 mg/dL and 102 mg/dL and 117 mg/dL. The glycemia (MLD–STZ C57BL/6J mice [6]; NeraSTZ, day 7, individual mice) was 117 mg/dL and 131 mg/dL and 93 mg/dL, the glycemia (MLD–STZ C57BL/6J mice [6]; NeraSTZ, day 9, individual mice) was 179 mg/dL and 138 mg/dL and 134 mg/dL and the glycemia (MLD–STZ C57BL/6J mice [6]; NeraSTZ, day 12, individual mice) was 250 mg/dL and 310 mg/dL and 180 mg/dL. For the same compound, the glycemia (MLD–STZ C57BL/6J mice [6]; NeraSTZ, day 16, individual mice) was 173 mg/dL and 303 mg/dL, the glycemia (MLD–STZ C57BL/6J mice [6]; NeraSTZ, day 22, individual mice) was 209 mg/dL and 344 mg/dL and the glycemia (MLD–STZ C57BL/6J mice [6]; NeraSTZ, day 28, individual mice) was 213 mg/dL and 229 mg/dL. For the same compound, the glycemia (MLD–STZ C57BL/6J mice [6]; NeraSTZ, day 36, individual mice) was 214 mg/dL and 337 mg/dL and 230 mg/dL, the AUC glycemia (MLD–STZ C57BL/6J mice [6]; NeraSTZ, individual mice) was 6636.5 and 8897.5 and 6783.5 and 7009 and 8879.5 and 5194.5 and 8003.5 and 8416 and 7853.5 and the inhibition at 10 µM (CK1-EPSILON) was 77%. For the same compound, the “cytokine- and glucolipotoxicity-induced apoptosis in WT islets” value ([7]; 10 μM, 72 h) was “reduced cytokine- and glucolipotoxicity-induced apoptosis”, the “mean TUNEL/isolation/%” value ([7]; WT HG/Pal Nera 10 μM 72 h, mean) was 370.621% and the “mean TUNEL/isolation/%” value ([7]; WT HG/Pal Nera 10 μM 72 h, single isolations, WT untreated = 100) was 424.349% and 323.811% and 387.381% and 346.941%. The “mean TUNEL/isolation/%” value ([7]; WT ILIF Nera 10 μM 72 h, mean) was 814.399%, the inhibition at 10 µM (MAPKAPK-2) was 7% and the “cytokine- and high glucose/palmitate-induced MST1 activation and caspase-3 activation” value (human islets [8]) was “potently and significantly inhibited”. For the same compound, the ins/gluc (MLD–STZ C57BL/6J mice [9]; NeraCtr, Mean) was 4.232, the ins/gluc (MLD–STZ C57BL/6J mice [9]; NeraCtr, fed state, individual mice) was 5.92 and 11.7581 and 5.035 and 1.3144 and 2.029 and 2.349 and 1.295 and 4.152 and the ins/gluc (MLD–STZ C57BL/6J mice [9]; NeraSTZ, Mean) was 2.006. For the same compound, the ins/gluc (MLD–STZ C57BL/6J mice [9]; NeraSTZ, fed state, individual mice) was 2.868 and 0.965 (2×) and 1.859 and 3.923 and 1.035 and 2.9255 and 4.307 and 0.6012 and 1.262 and 1.53 and 2.798 and 0.7155 and 2.33.
